Experimental data taken from patent US20230066011A1, “PYRROLOPYRIMIDINE DERIVATIVE, AND PHARMACEUTICAL COMPOSITION FOR PREVENTING OR TREATING PROTEIN KINASE-RELATED DISEASE COMPRISING SAME AS ACTIVE INGREDIENT” (VORONOI CO., LTD., priority 2019, published 2023).

Experiments:
SHP-77 = test: Inhibition of proliferation of SHP-77 cancer cells (Cell Titer-Glo); format: cell-based; conditions: Homo sapiens, SHP77, 72 hours
Procedure: To evaluate an inhibitory effect on the proliferation of cancer cells, each of an MDA-MB-231 cell line (Korean Cell Line Bank #30026) and an MDA-MB-468 cell line as triple-negative breast cancer cell lines, and SHP-77 (ATCC #CRL-2195) as a small-cell lung cancer cell line was cultured in DMEM (HyClone #SH30243) or an RPMI medium (HyClone #SH3027.01) to analyze a cell growth rate. More specifically, a cell line was plated on a 96-well flat bottom plate (Corning #3903) at a density of 2,000 cells/100 μL per well, and then treated with 11 concentrations of the Example compound, a solution of which was diluted 3-fold so that a final concentration of the compound was 10.000000, 3.333333, 1.111111, 0.370370, 0.123457, 0.041152, 0.013717, 0.004572, 0.001524, 0.000508, and 0.000169 μM. After 72 hours, each of the culture media was treated with 100 μL of Cell Titer-Glo (Promega G7573), and then cultured at room temperature for 10 minutes. Then, a degree of luminescence was measured using a microplate reader. A GI50 value was calculated from the measured degree of luminescence using Prism (Version 8.2 GraphPad) software.

human GST-CLK1 = biological target: T1, human GST-CLK1 (Homo sapiens, UniProt P49759); test: GST-CLK1 enzyme inhibition, ADP-Glo kinase assay; format: biochemical; conditions: ATP 10 μM, GST-CLK1 129-end
T1 construct: purified human GST-CLK1 (129-end, SignalChem) enzyme; purchased SignalChem
T1 sequence (P49759 129-484 limits assumed): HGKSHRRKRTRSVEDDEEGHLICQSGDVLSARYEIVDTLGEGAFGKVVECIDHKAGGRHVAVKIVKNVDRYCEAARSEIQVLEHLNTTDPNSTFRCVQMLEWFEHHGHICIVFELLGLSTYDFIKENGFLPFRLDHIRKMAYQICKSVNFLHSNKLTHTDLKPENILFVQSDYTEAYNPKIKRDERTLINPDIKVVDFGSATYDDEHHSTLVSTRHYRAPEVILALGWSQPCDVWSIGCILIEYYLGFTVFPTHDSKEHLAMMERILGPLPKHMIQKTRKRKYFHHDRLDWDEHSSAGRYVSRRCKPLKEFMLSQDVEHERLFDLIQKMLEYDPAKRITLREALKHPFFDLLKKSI
Outline: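 Human GST-CLK1 (129-end, 3 ng) reacted with substrate and 10 μM ATP for 1 h at 25° C in 40 mM Tris-HCl pH 7.4, 20 mM MgCl2, 0.5 mg/mL BSA, 50 μM DTT. ADP-Glo luminescence was normalised to solvent control; IC50 (nM) from 3 data sets.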

LRRK2 = LRRK2 (Homo sapiens, UniProt Q5S007); test: LRRK2 enzyme inhibition, ADP-Glo kinase assay; format: biochemical; design: purchased Invitrogen PR8604B; conditions: ATP 10 μM
LRRK2, sequence (Q5S007 970-2527 limits assumed): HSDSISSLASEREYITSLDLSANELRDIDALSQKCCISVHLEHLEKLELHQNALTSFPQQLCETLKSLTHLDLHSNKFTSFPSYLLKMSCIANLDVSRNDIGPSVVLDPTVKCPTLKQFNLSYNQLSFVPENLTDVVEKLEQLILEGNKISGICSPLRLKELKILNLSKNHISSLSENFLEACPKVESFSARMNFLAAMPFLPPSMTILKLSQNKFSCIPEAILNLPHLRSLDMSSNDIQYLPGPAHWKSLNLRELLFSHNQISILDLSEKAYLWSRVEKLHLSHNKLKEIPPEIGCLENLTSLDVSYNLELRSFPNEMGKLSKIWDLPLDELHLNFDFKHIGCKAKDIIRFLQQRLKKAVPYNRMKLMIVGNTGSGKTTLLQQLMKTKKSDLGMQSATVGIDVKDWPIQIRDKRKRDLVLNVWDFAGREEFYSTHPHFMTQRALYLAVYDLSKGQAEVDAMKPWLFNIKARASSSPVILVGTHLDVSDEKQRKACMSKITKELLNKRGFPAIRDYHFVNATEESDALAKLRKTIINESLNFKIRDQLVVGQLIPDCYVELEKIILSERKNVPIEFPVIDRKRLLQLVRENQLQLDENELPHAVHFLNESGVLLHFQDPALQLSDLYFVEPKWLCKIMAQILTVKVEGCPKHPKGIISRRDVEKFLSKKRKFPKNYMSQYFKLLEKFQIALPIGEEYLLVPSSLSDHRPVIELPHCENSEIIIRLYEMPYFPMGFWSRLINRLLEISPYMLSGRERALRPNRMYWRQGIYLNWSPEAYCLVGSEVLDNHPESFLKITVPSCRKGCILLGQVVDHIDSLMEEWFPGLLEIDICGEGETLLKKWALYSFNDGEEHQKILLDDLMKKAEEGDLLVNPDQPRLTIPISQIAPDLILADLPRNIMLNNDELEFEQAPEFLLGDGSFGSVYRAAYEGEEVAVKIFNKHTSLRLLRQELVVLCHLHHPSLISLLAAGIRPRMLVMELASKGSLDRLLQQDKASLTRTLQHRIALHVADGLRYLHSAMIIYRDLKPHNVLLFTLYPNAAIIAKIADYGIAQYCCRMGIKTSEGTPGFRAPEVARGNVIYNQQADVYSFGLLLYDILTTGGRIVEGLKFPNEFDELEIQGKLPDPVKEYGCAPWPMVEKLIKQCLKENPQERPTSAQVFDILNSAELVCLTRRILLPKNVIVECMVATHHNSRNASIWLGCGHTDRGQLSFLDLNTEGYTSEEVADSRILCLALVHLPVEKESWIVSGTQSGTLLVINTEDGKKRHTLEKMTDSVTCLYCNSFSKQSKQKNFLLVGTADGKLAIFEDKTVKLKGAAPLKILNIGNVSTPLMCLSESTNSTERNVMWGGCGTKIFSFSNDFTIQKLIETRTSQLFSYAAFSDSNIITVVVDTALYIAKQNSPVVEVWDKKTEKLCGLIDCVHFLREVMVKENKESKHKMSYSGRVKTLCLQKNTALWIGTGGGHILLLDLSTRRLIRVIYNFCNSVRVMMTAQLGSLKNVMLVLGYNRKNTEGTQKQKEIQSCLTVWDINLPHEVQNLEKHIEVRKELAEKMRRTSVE
Outline: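 Purified human LRRK2 (25 ng) with 10 μM ATP and 0.2 μg substrate in 40 mM Tris-HCl pH 7.4, 20 mM MgCl2, 0.5 mg/mL BSA, 50 μM DTT, 2 h at 25° C. ADP-Glo luminescence; 12-point compound series from 50 μM final; IC50 relative to solvent control.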

human GST-DYRK1A = biological target: T2, human GST-DYRK1A (Homo sapiens, UniProt Q13627); test: GST-DYRK1A enzyme inhibition, ADP-Glo kinase assay; format: biochemical; conditions: ATP 10 μM, GST-DYRK1A full length, read-out: DYRK1 IC50
T2 construct: purified human GST-DYRK1A (full length, Thermo Scientifics) enzyme; purchased Thermo Scientifics
Outline: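 Full-length human GST-DYRK1A (10 ng) with 10 μM ATP and specific substrate in 40 mM Tris-HCl pH 7.4, 20 mM MgCl2, 0.5 mg/mL BSA, 50 μM DTT, 1 h at 25 °C. ADP formation read by ADP-Glo luminescence relative to solvent control; IC50 from three data sets.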

LRRK2 (G2019S) = LRRK2 (G2019S) (Homo sapiens, UniProt Q5S007, G2019S); test: LRRK2 G2019S enzyme inhibition, ADP-Glo kinase assay; format: biochemical; design: purchased SignalChem L10-12GG; conditions: ATP 25 μM
LRRK2 (G2019S), sequence (Q5S007 970-2527 G2019S limits assumed): as the sequence (Q5S007 970-2527 limits assumed) above, with G1050S counted along it
Outline: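 Purified human LRRK2 G2019S (16 ng) with 25 μM ATP and 0.2 μg substrate, 2 h at 25° C. in Tris-HCl pH 7.4, MgCl2, BSA, DTT buffer; compounds at 12 final concentrations, 50 μM down to 0.000001024 μM. ADP-Glo luminescence versus solvent control gave IC50.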

MDA-MB-231 cell line = test: Inhibition of proliferation of MDA-MB-231 cancer cells (Cell Titer-Glo); format: cell-based; conditions: Homo sapiens, 72 hours
Outline: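 GI50 values derive from Cell Titer-Glo luminescence, measured after a 10-minute room-temperature incubation with the reagent. Before that, cells plated at 2,000 per well in DMEM or RPMI medium were treated for 72 h with compound at 11 final concentrations spanning 10 μM down to 0.000169 μM in threefold steps.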

Row | GI50 (SHP-77) [nM] | IC50 (human GST-CLK1) [nM] | IC50 (LRRK2) [nM] | IC50 (human GST-DYRK1A) [nM] | IC50 (LRRK2 (G2019S)) [nM] | GI50 (MDA-MB-231 cell line) [nM] | Structure (SMILES)
1 | 51 to 100 | 301 to 1000 | < 100 | 301 to 1000 | < 100 | 51 to 100 | CNc1nc(Nc2ccc(S(=O)(=O)N3CCOCC3)cc2OC)nc2[nH]cc(C#N)c12 [Example 62, 2-((2-methoxy-4-(morpholinosulfonyl)phenyl)amino)-4-(methylamino)-7H-pyrrolo[2,3-d]pyrimidine-5-carbonitrile]
2 | 301 to 1000 | 301 to 1000 | < 100 | 301 to 1000 | < 100 | 301 to 1000 | CCNc1nc(Nc2ccc(S(=O)(=O)N3CCOCC3)cc2OC)nc2[nH]cc(C#N)c12 [Example 63, 4-(ethylamino)-2-((2-methoxy-4-(morpholinosulfonyl)phenyl)amino)-7H-pyrrolo[2,3-d]pyrimidine-5-carbonitrile]
3 | < 50 | 301 to 1000 | < 100 | 301 to 1000 | < 100 | < 50 | CCCNc1nc(Nc2ccc(S(=O)(=O)N3CCOCC3)cc2OC)nc2[nH]cc(C#N)c12 [Example 64, 2-((2-methoxy-4-(morpholinosulfonyl)phenyl)amino)-4-(propylamino)-7H-pyrrolo[2,3-d]pyrimidine-5-carbonitrile]
4 | < 50 | 301 to 1000 | – | 301 to 1000 | < 100 | < 50 | COc1cc(S(=O)(=O)N2CCOCC2)ccc1Nc1nc(NCC(C)C)c2c(C#N)c[nH]c2n1 [Example 65, 4-(isobutylamino)-2-((2-methoxy-4-(morpholinosulfonyl)phenyl)amino)-7H-pyrrolo[2,3-d]pyrimidine-5-carbonitrile]
5 | 301 to 1000 | 301 to 1000 | < 100 | 301 to 1000 | < 100 | 301 to 1000 | COCCNc1nc(Nc2ccc(S(=O)(=O)N3CCOCC3)cc2OC)nc2[nH]cc(C#N)c12 [Example 69, 2-((2-methoxy-4-(morpholinosulfonyl)phenyl)amino)-4-((2-methoxyethyl)amino)-7H-pyrrolo[2,3-d]pyrimidine-5-carbonitrile]
6 | 301 to 1000 | 301 to 1000 | < 100 | 301 to 1000 | < 100 | 301 to 1000 | COc1cc(S(=O)(=O)N2CCOCC2)ccc1Nc1nc(NC2CC2)c2c(C#N)c[nH]c2n1 [Example 70, 4-(cyclopropylamino)-2-((2-methoxy-4-(morpholinosulfonyl)phenyl)amino)-7H-pyrrolo[2,3-d]pyrimidine-5-carbonitrile]
7 | 51 to 100 | 301 to 1000 | < 100 | 301 to 1000 | < 100 | 101 to 300 | COc1cc(S(=O)(=O)N2CCOCC2)ccc1Nc1nc(NC2CCC2)c2c(C#N)c[nH]c2n1 [Example 71, 4-(cyclobutylamino)-2-((2-methoxy-4-(morpholinosulfonyl)phenyl)amino)-7H-pyrrolo[2,3-d]pyrimidine-5-carbonitrile]
8 | < 50 | 301 to 1000 | 301 to 1000 | 301 to 1000 | 301 to 1000 | < 50 | COc1cc(S(=O)(=O)N2CCOCC2)ccc1Nc1nc(NC2CCCC2)c2c(C#N)c[nH]c2n1 [Example 72, 4-(cyclopentylamino)-2-((2-methoxy-4-(morpholinosulfonyl)phenyl)amino)-7H-pyrrolo[2,3-d]pyrimidine-5-carbonitrile]
9 | < 50 | 301 to 1000 | < 100 | 301 to 1000 | – | < 50 | COCC(C)(C)Nc1nc(Nc2ccc(S(=O)(=O)N3CCOCC3)cc2OC)nc2[nH]cc(C#N)c12 [Example 78, 4-((1-methoxy-2-methylpropan-2-yl)amino)-2-((2-methoxy-4-(morpholinosulfonyl)phenyl)amino)-7H-pyrrolo[2,3-d]pyrimidine-5-carbonitrile]
10 | 51 to 100 | 301 to 1000 | – | 301 to 1000 | < 100 | 101 to 300 | COc1cc(S(=O)(=O)N2CCOCC2)ccc1Nc1nc(NCC2CCCC2)c2c(C#N)c[nH]c2n1 [Example 80, 4-(cyclo(pentylmethyl)amino)-2-((2-methoxy-4-(morpholinosulfonyl)phenyl)amino)-7H-pyrrolo[2,3-d]pyrimidine-5-carbonitrile]
11 | < 50 | 301 to 1000 | – | 301 to 1000 | < 100 | < 50 | COc1cc(S(=O)(=O)N2CCC(N3CCOCC3)CC2)ccc1Nc1nc(NCC(C)C)c2c(C#N)c[nH]c2n1 [Example 84, 4-(isobutylamino)-2-((2-methoxy-4-((4-morpholinopiperidin-1-yl)sulfonyl)phenyl)amino)-7H-pyrrolo[2,3-d]pyrimidine-5-carbonitrile]
12 | < 50 | 301 to 1000 | < 100 | 301 to 1000 | – | < 50 | COc1cc(S(=O)(=O)N2CCC(N3CCOCC3)CC2)ccc1Nc1nc(NCC2CC2)c2c(C#N)c[nH]c2n1 [Example 92, 4-((cyclopropylmethyl)amino)-2-((2-methoxy-4-((4-morpholinopiperidin-1-yl)sulfonyl)phenyl)amino)-7H-pyrrolo[2,3-d]pyrimidine-5-carbonitrile]
13 | < 50 | 101 to 300 | < 100 | 301 to 1000 | – | < 50 | COCC(C)(C)Nc1nc(Nc2ccc(S(=O)(=O)N3CCC(N4CCOCC4)CC3)cc2OC)nc2[nH]cc(C#N)c12 [Example 93, 4-((1-methoxy-2-methylpropan-2-yl)amino)-2-((2-methoxy-4-((4-morpholinopiperidin-1-yl)sulfonyl)phenyl)amino)-7H-pyrrolo[2,3-d]pyrimidine-5-carbonitrile]
14 | 301 to 1000 | 301 to 1000 | 101 to 300 | 301 to 1000 | – | 301 to 1000 | COc1cc(S(=O)(=O)N2CCOCC2)ccc1Nc1nc(NC2CCCC2)c2c(C(F)(F)F)c[nH]c2n1 [Example 186, N^4-cyclopentyl-N^2-(2-methoxy-4-(morpholinosulfonyl)phenyl)-5-(trifluoromethyl)-7H-pyrrolo[2,3-d]pyrimidine-2,4-diamine]
15 | 301 to 1000 | 301 to 1000 | < 100 | 301 to 1000 | – | 301 to 1000 | COc1cc(S(=O)(=O)N2CCC(N3CCOCC3)CC2)ccc1Nc1nc(NC2CCCC2)c2c(C(F)(F)F)c[nH]c2n1 [Example 187, N^4-cyclopentyl-N^2-(2-methoxy-4-((4-morpholinopiperidin-1-yl)sulfonyl)phenyl)-5-(trifluoromethyl)-7H-pyrrolo[2,3-d]pyrimidine-2,4-diamine]
16 | 301 to 1000 | 101 to 300 | – | 301 to 1000 | – | 301 to 1000 | COc1cc(S(=O)(=O)N2CCOCC2)ccc1Nc1nc(NCC2CC2)c2c(C(F)(F)F)c[nH]c2n1 [Example 203, N^4-(cyclopropylmethyl)-N^2-(2-methoxy-4-(morpholinosulfonyl)phenyl)-5-(trifluoromethyl)-7H-pyrrolo[2,3-d]pyrimidine-2,4-diamine]
17 | 301 to 1000 | 301 to 1000 | – | 301 to 1000 | – | 301 to 1000 | CCCCNc1nc(Nc2ccc(S(=O)(=O)N3CCOCC3)cc2OC)nc2[nH]cc(C(F)(F)F)c12 [Example 207, N^4-butyl-N^2-(2-methoxy-4-(morpholinosulfonyl)phenyl)-5-(trifluoromethyl)-7H-pyrrolo[2,3-d]pyrimidine-2,4-diamine]
